What was measured:
[1] = Compound stability in human liver microsomes; assay type: in vitro ADME; settings: pH 7.4; for CLint scaled at 5 μM: liver microsomes, in vivo CLint extrapolated from human liver microsome incubation; for half-life at 5 μM: human liver microsomes 0.5 mg protein/mL, compound 5 μM, NADPH 1.0 mM, 37° C., read-out: Human T1/2
Experimental: (§1) The LC/MS/MS system used in the analysis consists of an Agilent 1200 Series vacuum degasser, binary pump, well-plate autosampler, thermostatted column compartment, the Agilent G6430 Triple Quadrupole Mass Spectrometer with an electrosprayionization (ESI) source. Quantitative analysis was carried out using MRM mode. The parameters for MRM transitions are in the Table A.
(§2) An Agilent XDB-C18, 2.1×30 mm, […] column was used for the analysis. 5 μL of the samples were injected. Analysis condition: The mobile phase was 0.1% formic acid in water (A) and 0.1% formic acid in methanol (B). The flow rate was 0.4 mL/min. And the gradient of Mobile phase was in the Table B.
(§3) Alternatively, an Agilent 6330 series LC/MS/MS spectrometer equipped with G1312A binary pumps, a G1367A autosampler and a G1314C UV detector were used in the analysis. An ESI source was used on the LC/MS/MS spectrometer. The analysis was done in positive ion mode as appropriate and the MRM transition for each analyte was optimized using standard solution. A Capcell MP-C18 100×4.6 mm I.D., […] column (Phenomenex, Torrance, Calif., USA) was used during the analysis. The mobile phase was 5 mM ammonia acetate, 0.1% MeOH in water (A): 5 mM ammonia acetate, 0.1% MeOH in acetonitrile (B) (70:30, v/v). The flow rate was 0.6 mL/min. Column was maintained at ambient temperature. 20 μL of the samples were injected.
(§4) Human or rat liver microsomes incubations were conducted in duplicate in polypropylene tubes. The typical incubation mixtures consisted of human or rat liver microsomes (0.5 mg protein/mL), compounds of interest (5 μM) and NADPH (1.0 mM) in a total volume of 200 μL potassium phosphate buffer (PBS, 100 mM, pH 7.4). Compounds were dissolved in DMSO and diluted with PBS such that the final concentration of DMSO was 0.05%. The enzymatic reactions were commenced with the addition of protein after a 3-min preincubation and incubated in a water bath open to the air at 37° C. Reactions were terminated at various time points (0, 5, 10, 15, 30, 60 min) by adding equal volume of ice-cold acetonitrile. The samples were stored at −80° C. until LC/MS/MS assays.
(§5) The concentrations of compounds in the incubation mixtures of human or rat liver microsomes were determined by a LC/MS/MS method. The ranges of the linearity in the concentration range were determined for each tested compounds.
(§6) A parallel incubation was performed using denatured microsomes as the negative control, and reactions were terminated at various time points (0, 15, 60 min) after incubation at 37° C.
(§7) Dextromethorphan (70 μM) was selected as the positive control, and reactions were terminated at various time points (0, 5, 10, 15, 30, 60 min) after incubation at 37° C. Both positive and negative control samples were included in each assay to ensure the integrity of the microsomal incubation system.
(§8) The concentrations of compounds in human or rat liver microsome incubations were plotted as a percentage of the relevant zero time point control for each reaction. The in vivo CLint were extrapolated (ref.: Naritomi, Y.; Terashita, S.; Kimura, S.; Suzuki, A.; Kagayama, A.; and Sugiyama, Y.; Prediction of human hepatic clearance from in vivo animal experiments and in vitro metabolic studies with liver microsomes from animals and humans. Drug Metab. Dispos., 2001, 29: 1316-1324).

[2] = Compound stability in rat liver microsomes; assay type: in vitro ADME; settings: pH 7.4; for CLint scaled at 5 μM: liver microsomes, in vivo CLint extrapolated from rat liver microsome incubation; for half-life at 5 μM: rat liver microsomes 0.5 mg protein/mL, compound 5 μM, NADPH 1.0 mM, 37° C., read-out: Rat T1/2
Experimental: as §1, §2, §3, §4, §5, §6, §7, §8

[3] = Pharmacokinetic profiles in rats; assay type: in vivo, rat; settings: for Cl/F / AUC(0-t) / half-life / Vd: iv dosing 1 mg/kg; for F: oral vs iv (iv 1 mg/kg; p.o. generally 5 or 10 mg/kg); for AUC(0-t) / half-life / Vd: rat, plasma; for Vd: read-out: Vss
Experimental: The compounds disclosed herein are assessed in pharmacokinetic studies in mice, rats, dogs or monkeys. The compounds are administered as a water solution, 2% HPMC+1% TWEEN®80 in water solution, 5% DMSO+5% solutol in saline, 4% MC suspension or capsule. For the intravenous administration, the animals are generally given at 1 or 2 mg/kg dose. For the oral (p.o.) dosing, mice and rats are generally given 5 or 10 mg/kg dose, and dogs and monkeys are generally given 10 mg/kg dose. The blood samples (0.3 mL) are drawn at 0.25, 0.5, 1.0, 2.0, 3.0, 4.0, 6.0, 8.0, 12 and 24 h time points or 0.083, 0.25, 0.5, 1.0, 2.0, 4.0, 6.0, 8.0 and 24 h time points and centrifuged at 3,000 or 4000 rpm for 2 to 10 min. The plasma solutions are collected, stored at −20° C. or −70° C. until analyzed by LC/MS/MS as described above.

In the case of `Cc1noc(-c2c(N)ncnc2N[C@@H](C)c2cc3cccc(Cl)c3c(=O)n2-c2cccc(F)c2)n1` [Ex. 23, (S)-3-(1-((6-amino-5-(3-methyl-1,2,4-oxadiazol-5-yl)pyrimidin-4-yl)amino)ethyl)-8-chloro-2-(3-fluorophenyl)isoquinolin-1(2H)-one], the CLint scaled at 5 μM [1] is reported as 479 mL/min/kg, the half-life at 5 μM [1] is reported as 3.63 min and the CLint scaled at 5 μM [2] is reported as 456 mL/min/kg. It also gave a half-life at 5 μM [2] of 5.45 min.

`C[C@H](Nc1ncnc(N)c1-c1nnn(C)n1)c1cc2cccc(-c3cnn(C)c3)c2c(=O)n1C1CC1` [Ex. 33, (S)-3-(1-((6-amino-5-(2-methyl-2H-tetrazol-5-yl)pyrimidin-4-yl)amino)ethyl)-2-cyclopropyl-8-(1-methyl-1-pyrazol-4-yl)isoquinolin-1 (2H)-one] gave a CLint scaled at 5 μM [1] of 28.4 mL/min/kg, a half-life at 5 μM [1] of 61.3 min and a Cl/F [3] of 12.7 mL/min/kg. For the same compound, the F [3] was 163.6%, the AUC(0-t) [3] was 1300 ng·h/mL and the half-life [3] was 97.2 min. For the same compound, the Vd [3] was 1.9 L/kg, the CLint scaled at 5 μM [2] was 26.7 mL/min/kg and the half-life at 5 μM [2] was 92.9 min.

In the case of `CC[C@H](Nc1ncnc(N)c1-c1nc(C)no1)c1cc2cccc(-c3cnn(C)c3)c2c(=O)n1C1CC1` [Ex. 32, (S)-3-(1-((6-amino-5-(3-methyl-1,2,4-oxadiazol-5-yl)pyrimidin-4-yl)amino)propyl)-2-cyclopropyl-8-(1-methyl-1H-pyrazol-4-yl)isoquinolin-1(2H)-one], the CLint scaled at 5 μM [1] is reported as 23.4 mL/min/kg, the half-life at 5 μM [1] is reported as 74.3 min and the Cl/F [3] is reported as 24.3 mL/min/kg. It also gave an F [3] of 74.2%, an AUC(0-t) [3] of 688 ng·h/mL and a half-life [3] of 89.4 min. For the same compound, the Vd [3] was 2.42 L/kg, the CLint scaled at 5 μM [2] was 21.2 mL/min/kg and the half-life at 5 μM [2] was 117 min.

`CC[C@H](Nc1ncnc(N)c1-c1nnc(C)o1)c1cc2cccc(C)c2c(=O)n1C1CC1` [Ex. 6, (S)-3-(1-((6-amino-5-(5-methyl-1,3,4-oxadiazol-2-yl)pyrimidin-4-yl)amino)propyl)-2-cyclopropyl-8-methylisoquinolin-1(2H)-one] gave a CLint scaled at 5 μM [1] of 93.1 mL/min/kg, a half-life at 5 μM [1] of 18.7 min and a Cl/F [3] of 62.3 mL/min/kg. The F [3] was 48.66%, the AUC(0-t) [3] was 266 ng·h/mL and the half-life [3] was 51.6 min. It also gave a Vd [3] of 4.08 L/kg, a CLint scaled at 5 μM [2] of 324 mL/min/kg and a half-life at 5 μM [2] of 7.66 min.

With `CC[C@H](Nc1ncnc(N)c1-c1ncn(C)n1)c1cc2cccc(Cl)c2c(=O)n1C1CC1` [Ex. 20, (S)-3-(1-((6-amino-5-(1-methyl-1H-1,2,4-triazol-3-yl)pyrimidin-4-yl)amino)propyl)-8-chloro-2-cyclopropylisoquinolin-1(2H)-one] the CLint scaled at 5 μM [1] was 251 mL/min/kg, the half-life at 5 μM [1] was 6.93 min and the Cl/F [3] was 48.7 mL/min/kg. For the same compound, the F [3] was 64.61%, the AUC(0-t) [3] was 341 ng·h/mL and the half-life [3] was 48.6 min. For the same compound, the Vd [3] was 2.65 L/kg, the CLint scaled at 5 μM [2] was 100 mL/min/kg and the half-life at 5 μM [2] was 24.9 min.

In the case of `CC[C@H](Nc1ncnc(N)c1-c1nc(C)no1)c1cc2cccc(Cl)c2c(=O)n1-c1ccccc1` [Ex. 3, (S)-3-(1-((6-amino-5-(3-methyl-1,2,4-oxadiazol-5-yl)pyrimidin-4-yl)amino)propyl)-8-chloro-2-phenylisoquinolin-1(2H)-one], the CLint scaled at 5 μM [1] is reported as 134 mL/min/kg, the half-life at 5 μM [1] is reported as 12.9 min and the Cl/F [3] is reported as 128 mL/min/kg. For the same compound, the F [3] was 12.71%, the AUC(0-t) [3] was 131 ng·h/mL and the half-life [3] was 44.4 min. It also gave a Vd [3] of 4.96 L/kg, a CLint scaled at 5 μM [2] of 148 mL/min/kg and a half-life at 5 μM [2] of 16.7 min.

With `CC[C@H](Nc1ncnc(N)c1-c1noc(C)n1)c1cc2cccc(-c3cnn(C)c3)c2c(=O)n1C1CC1` [Ex. 31, (S)-3-(1-((6-amino-5-(5-methyl-1,2,4-oxadiazol-3-yl)pyrimidin-4-yl)amino)propyl)-2-cyclopropyl-8-(1-methyl-1H-pyrazol-4-yl)isoquinolin-1(2H)-one] the CLint scaled at 5 μM [1] was 18.9 mL/min/kg, the half-life at 5 μM [1] was 92.2 min and the Cl/F [3] was 17.3 mL/min/kg. It also gave an F [3] of 139.0%, an AUC(0-t) [3] of 934 ng·h/mL and a half-life [3] of 136 min. For the same compound, the Vd [3] was 2.9 L/kg, the CLint scaled at 5 μM [2] was 26.1 mL/min/kg and the half-life at 5 μM [2] was 95.2 min.

Work on `CC[C@H](Nc1ncnc(N)c1-c1noc(C)n1)c1cc2cccc(Cl)c2c(=O)n1C1CC1` [Ex. 21, (S)-3-(1-((6-amino-5-(5-methyl-1,2,4-oxadiazol-3-yl)pyrimidin-4-yl)amino)propyl)-8-chloro-2-cyclopropylisoquinolin-1(2H)-one] yielded a CLint scaled at 5 μM [1] of 258 mL/min/kg, a half-life at 5 μM [1] of 6.73 min and a CLint scaled at 5 μM [2] of 130 mL/min/kg. The half-life at 5 μM [2] was 19.2 min.

`CC[C@H](Nc1ncnc(N)c1-c1nnc(C)o1)c1cc2cccc(Cl)c2c(=O)n1C1CC1` [Ex. 10, S)-3-(1-((6-amino-5-(5-methyl-1,3,4-oxadiazol-2-yl)pyrimidin-4-yl)aminopropyl)-8-chloro-2-cyclopropylisoquinolin-1(2H)-one] showed a CLint scaled at 5 μM [1] of 86.9 mL/min/kg, a half-life at 5 μM [1] of 20 min and a Cl/F [3] of 50 mL/min/kg. The F [3] was 81.33%, the AUC(0-t) [3] was 333 ng·h/mL and the half-life [3] was 86.4 min. The Vd [3] was 5.35 L/kg, the CLint scaled at 5 μM [2] was 169 mL/min/kg and the half-life at 5 μM [2] was 14.7 min.

For `Cc1nc(-c2c(N)ncnc2N[C@@H](C)c2cc3cccc(-c4cnn(C)c4)c3c(=O)n2C2CC2)no1` [Ex. 34, (S)-3-(1-((6-amino-5-(5-methyl-1,2,4-oxadiazol-3-yl)pyrimidin-4-yl)amino)ethyl)-2-cyclopropyl-8-(1-methyl-1H-pyrazol-4-yl)isoquinolin-1 (2H)-one], the CLint scaled at 5 μM [1] was 42.4 mL/min/kg, the half-life at 5 μM [1] was 41 min and the Cl/F [3] was 23.7 mL/min/kg. The F [3] was 96.4%, the AUC(0-t) [3] was 678 ng·h/mL and the half-life [3] was 92.4 min. It also gave a Vd [3] of 2.74 L/kg, a CLint scaled at 5 μM [2] of 29.9 mL/min/kg and a half-life at 5 μM [2] of 82.9 min.

Compound `C[C@H](Nc1ncnc(N)c1-c1nnn(C)n1)c1cc2cccc(-c3cnn(C)c3)c2c(=O)n1-c1ccccc1` [Ex. 29, (S)-3-(1-((6-amino-5-(2-methyl-2H-tetrazol-5-yl)pyrimidin-4-yl)amino)ethyl)-8-(1-methyl-1H-pyrazol-4-yl)-2-phenylisoquinolin-1(2H)-one] has a CLint scaled at 5 μM [1] of 19 mL/min/kg, a half-life at 5 μM [1] of 91.5 min and a Cl/F [3] of 10 mL/min/kg. It also gave an F [3] of 80.6%, an AUC(0-t) [3] of 1780 ng·h/mL and a half-life [3] of 78 min. The Vd [3] was 0.88 L/kg, the CLint scaled at 5 μM [2] was 38.3 mL/min/kg and the half-life at 5 μM [2] was 64.9 min.

In the case of `CCCCOC(=O)c1nc(-c2c(N)ncnc2N[C@@H](CC)c2cc3cccc(Cl)c3c(=O)n2C2CC2)nn1C` [Ex. 14, (S)-butyl 3-(4-amino-6-((1-(8-chloro-2-cyclopropyl-1-oxo-1,2-dihydro-isoquinolin-3-yl)propyl)amino)pyrimidin-5-yl)-1-methyl-1H-1,2,4-triazole-5-carboxylate], the CLint scaled at 5 μM [1] is reported as 225 mL/min/kg, the half-life at 5 μM [1] is reported as 7.73 min and the CLint scaled at 5 μM [2] is reported as 125 mL/min/kg. The half-life at 5 μM [2] was 19.9 min.

Reference: patent publication US9512114B2, “Substituted aminopyrimidine compounds and methods of use” (Calitor Sciences, LLC, priority 2013, dated 2016)
